Experimental data: patent publication US20040122081A1, “Pharmaceutical compositions and methods of using taxane derivatives” (priority 2002, published 2004)
In brackets after ≈: the same amount, converted by molar mass. Several values for one entry are separate records, joined by “and”; a condition that tells them apart may be missing. Equal entries are not always repeated. Where two headings read alike, the source gives them in different places.

Key:
Format in all cases: physicochemical
[1] = Stability of solution in presence of POE castor oil at 50° C.; conditions: for Potency / Total Impurities: solution containing dehydrated alcohol and POE castor oil
Text: As shown below, the stability of the solution containing POE castor oil was much lower than the injection solution without the co-solvent.

[2] = Solubility in aqueous dehydrated alcohol / POE castor oil solutions; conditions: aqueous dehydrated alcohol/POE castor oil solution, 24 °C, aqueous with cosolvent or surfactant or cyclodextrin, thermodynamic from solid, stirred 16 hours, read-out: Drug Solubility
Protocol: However, this solution cannot be injected directly into patients as the non-aqueous components exceed 20%, thus potentially causing irritation at the injection site. […] It has been shown that the precipitation can be avoided by inclusion of a co-solvent such as polyoxyethylated (POE) castor oil in the formulation. Subsequently, solubility of the drug substance was determined in solutions containing various amounts of dehydrated alcohol and POE castor oil. Approximately 20 mg of drug was added to 3 mL aliquots of the solutions shown below in Table III. Samples were stirred for 16 hours, filtered trough 0.45 micron nylon syringe filters and analyzed by HPLC for drug concentration.

[3] = Effect of pH on drug substance stability in ethanol:buffer solutions; conditions: for % Compound Remaining / Total Impurity Index: 1 mg/mL in 75% v/v ethanol:0.01M tartrate, 18 days 50° C.
Protocol: The effect of pH on the drug substance stability was also studied. The buffer pH providing maximum stability was determined by comparing the stability of prototype formulations of the drug substance. […] Relative area percents of drug peaks were evaluated following 2 days storage at 85° C. […] Subsequent experiments evaluated stability (1 mg drug/mL) in 75% v/v ethanol:0.01M tartrate buffers. Three mL aliquots of samples were dispensed into 5 cc Type I glass vials and closed with West 4405/50 20 mm stoppers. Percent drug substance remaining, and impurities were evaluated following 18 days storage at 50° C. and compared to initial values.

[4] = Solubility in prototype formulation (75% v/v dehydrated alcohol, 10 mM tartrate buffer, apparent pH 5.4); conditions: aqueous with cosolvent or surfactant or cyclodextrin, thermodynamic from solid
Protocol: Solubility of four lots of drug substance was evaluated in the prototype formulation developed; 75% v/v dehydrated alcohol, 10 mM tartrate buffer resulting in an apparent pH of 5.4. 15 mg/mL of drug substance were used. 5 mL aliquots of the solution were dispensed into glass vials and an additional (˜50 mg) of drug substance was added. The vials were closed, sealed and stirred for 16 hours at room temperature. Samples were filtered and analyzed by HPLC for drug concentration.

[5] = Equilibrium solubility in diluted drug product (mixed two-vial formulation); conditions: 7.5% ethanol, 4% POE castor oil in tartrate buffer; for solubility thermodynamic at 16 h: 24 °C
Protocol: A study was also undertaken to determine the equilibrium solubility of Compound Ia in the mixture obtained by mixing the contents of the two vial formulation. Ten milliliters of the mixed solution was transferred into four 10 cc Type I flint glass vials. To each of these aliquots, approximately 25 mg of drug substance was added. A different lot of drug substance was added to each vial. Vials were closed with West Teflon-faced stoppers, sealed with aluminum seals and stirred for 16 hours at room temperature, protected from light. Samples were filtered through 0.45 micron hydrophilic PVDF membranes and analyzed by HPLC for drug concentration. Solubility results are listed below in Table VI. […] Samples were prepared and stirred at 24±3° C. for about 5 hours and placed in a 5±3° C. storage chamber for about 17 hours. Upon removal from the storage chamber, samples were immediately filtered and analyzed by HPLC for drug concentration.

[6] = Solubility of compound in a co-solvent:water mixture; conditions: aqueous with cosolvent or surfactant or cyclodextrin, thermodynamic from solid, stirred over 16 hours
Protocol: Approximately 25 mg of drug substance was added to 2 mL aqueous solution of ethanol (33%, 50% and 75% v/v). An additional 10 mg of drug substance was added to the 75% sample as all drug appeared to dissolve. A similar study was performed by adding approximately 25 mg drug substance to 2 mL aqueous solution of tertiary butyl alcohol (33%, 50% and 66% v/v). Samples were stirred for over 16 hours, filtered through 0.45μ nylon syringe filters, diluted and analyzed by HPLC for drug concentration. The results shown in Table I indicate that among the conditions evaluated, 75% v/v dehydrated alcohol in water for injection provided the highest solubility. Based on the results of these studies, a formulation of 15 mg/mL drug substance in 75% v/v ethanol:water was selected for further studies.

[7] = Intrinsic aqueous solubility; conditions: water
Text: Therefore, it was necessary to formulate the compound in such a way to get the desired solubility at a physiological pH and maintain stability prior to administration.

[8] = Dilution of drug solution with aqueous diluents; conditions: 15 mg/mL drug solution (75% ethanol/10 mM tartrate buffer, apparent pH 5.4) diluted with 0.9% sodium chloride injection or 5% dextrose injection
[9] = Buffer pH 2.6, apparent pH 3.88
[10] = Buffer pH 3.0, apparent pH 4.67
[11] = Buffer pH 3.5, apparent pH 5.15
[12] = Buffer pH 3.6, apparent pH 5.20
[13] = Buffer pH 3.8, apparent pH 5.39
[14] = Buffer pH 4.0, apparent pH 5.69
[15] = Buffer pH 4.0, apparent pH 5.81
[16] = Buffer pH 4.2, apparent pH 5.99
[17] = Buffer pH 4.4, apparent pH 6.24

Potency ([1]; 6 days @ 50° C.): 2000 µg/mL
Total Impurities ([1]; 6 days @ 50° C.): 10.9
Potency ([1]; 16 days @ 50° C.): 1900 µg/mL
Total Impurities ([1]; 16 days @ 50° C.): 16.5
Potency ([1]; Initial): 2200 µg/mL
Total Impurities ([1]; Initial): 2.1
% potency remaining ([1]; injection solution (ethanol, pH 5.4 tartrate buffer) w/o POE castor oil, 28 days stored at 50° C.): 100%
% potency remaining ([1]; injection solution (ethanol, pH 5.4 tartrate buffer) with POE castor oil 4%, 16 days stored at 50° C.): 86%
solubility at 16 h ([2]; Aqueous vehicle: Dehydrated Alcohol 3.75% v/v, POE Castor Oil 2% v/v): 960 µg/mL (≈ 1050 µM)
solubility at 16 h ([2]; Aqueous vehicle: Dehydrated Alcohol 7.50% v/v, POE Castor Oil 4% v/v): > 1500 µg/mL
solubility at 16 h ([2]; Aqueous vehicle: Dehydrated Alcohol 9.375% v/v, POE Castor Oil 5% v/v): 2910 µg/mL (≈ 3180 µM)
buffer pH at which the best stability was achieved ([3]; 0.2 mg drug/mL in 16.7% v/v ethanol:0.1M citrate buffers, 2 days storage at 85° C., HPLC relative area percent): 4.5
apparent pH of the most stable solution ([3]; 1 mg drug/mL in 75% v/v ethanol:0.01M tartrate buffers, 18 days at 50° C., corresponds to tartrate buffer pH 3.8): 5.4
% Compound Remaining [3, 9]: 94.4%
Total Impurity Index [3, 9]: 4.16 Area %
% Compound Remaining [3, 10]: 97.1%
Total Impurity Index [3, 10]: 2.51 Area %
% Compound Remaining [3, 11]: 97.1%
Total Impurity Index [3, 11]: 2.06 Area %
% Compound Remaining [3, 12]: 98.1%
Total Impurity Index [3, 12]: 1.36 Area %
% Compound Remaining [3, 13]: 101%
Total Impurity Index [3, 13]: 1.34 Area %
% Compound Remaining [3, 14]: 100%
Total Impurity Index [3, 14]: 1.62 Area %
% Compound Remaining [3, 15]: 98.1%
Total Impurity Index [3, 15]: 1.99 Area %
% Compound Remaining [3, 16]: 99%
Total Impurity Index [3, 16]: 1.67 Area %
% Compound Remaining [3, 17]: 100%
Total Impurity Index [3, 17]: 1.84 Area %
solubility thermodynamic ([4]; 5 °C, 5±3° C., read-out: equilibrium solubility): 23000 µg/mL (≈ 25200 µM)
solubility at 16 h ([4]; 25 °C, room temperature, average of four lots): ~22000 µg/mL (≈ 24100 µM)
solubility thermodynamic ([5]; 5 °C, aqueous with cosolvent or surfactant or cyclodextrin, thermodynamic from solid, 5 ± 3° C.): 2460 µg/mL (≈ 2690 µM)
solubility thermodynamic at 16 h ([5]; aqueous with cosolvent or surfactant or cyclodextrin, thermodynamic from solid, 24 ± 3° C., individual lots of drug substance, read-out: Equilibrium Solubility in Diluted Drug Product): 2580 µg/mL (≈ 2820 µM)
solubility thermodynamic at 16 h ([5]; aqueous with cosolvent or surfactant or cyclodextrin, thermodynamic from solid, Average @ 24 ± 3° C., four lots, read-out: Equilibrium Solubility in Diluted Drug Product, Average): ~2580 µg/mL (≈ 2820 µM)
Equilibrium Solubility in Diluted Drug Product ([5]; 24 ± 3° C., individual lots of drug substance): 2570 µg/mL and 2620 µg/mL and 2560 µg/mL
Equilibrium Solubility in Diluted Drug Product, Average ([5]; Average @ 24 ± 3° C., four lots): 2580 µg/mL
solubility ([6]; ethanol:water mixture, Dehydrated Alcohol, USP 33% v/v in water): 30 µg/mL (≈ 32.8 µM)
solubility ([6]; ethanol:water mixture, Dehydrated Alcohol, USP 50% v/v in water): 1640 µg/mL (≈ 1790 µM)
solubility ([6]; ethanol:water mixture, Dehydrated Alcohol, USP 75% v/v in water): > 17500 µg/mL
solubility ([6]; tertiary butyl alcohol:water mixture, Tertiary Butyl Alcohol 33% v/v in water): 190 µg/mL (≈ 208 µM)
solubility ([6]; tertiary butyl alcohol:water mixture, Tertiary Butyl Alcohol 50% v/v in water): 3130 µg/mL (≈ 3420 µM)
solubility ([6]; tertiary butyl alcohol:water mixture, Tertiary Butyl Alcohol 66% v/v in water): 13000 µg/mL (≈ 14200 µM)
solubility [7]: < 0.1 µg/mL
outcome of dilution with aqueous diluents [8]: drug precipitation
SMILES: CSCO[C@H]1C[C@H]2OC[C@@]2(OC(C)=O)[C@H]2[C@H](OC(=O)c3ccccc3)[C@]3(O)C[C@H](OC(=O)[C@H](O)[C@@H](NC(=O)c4ccccc4)c4ccccc4)C(C)=C([C@@H](OC(C)=O)C(=O)[C@]12C)C3(C)C [Compound Ia, 7-O-methylthiomethylpaclitaxel]
